Article PMC6745845, “In Vitro and in Vivo antitumor activity and the mechanism of siphonodictyal B in human colon cancer cells” (Cancer Medicine, 2019)
Where two headings read alike, the source gives them in different places. Blank lines part the entries; values can stand above or below the compound they belong to.

Key:
[1] = tested on: HCT 116 cells; assay: Western blot analysis; assay type: cell-based, human
Method: HCT 116 cells were seeded in six‐well plates at 2 × 10^5 cells/well and incubated for 24 houra. […] Cells were harvested and lysed using RIPA buffer. The proteins were separated on an SDS‐PAGE and transferred to PVDF membranes. Then, the membranes were blocked for 1 hour and incubated with primary antibodies overnight at 4°C. The membranes were washed and incubated with secondary antibodies for 1 hour at room temperature. Next, the resultant bands were detected using an Odyssey Infrared Imaging system (LI‐COR, NB, USA). Antibodies against phospho‐RB (Ser780), AKT, phospho‐AKT ([…]), PARP, phospho‐p38 MAPK (Thr180/Tyr182), p38 MAPK, and Bim were purchased from Cell Signaling Technology (Danvers, MA, USA). Antibodies against β‐actin and α‐tubulin were purchased from Sigma‐Aldrich.

[2] = target: T1, CDK4/Cyclin D3 (Homo sapiens, UniProt P11802); assay: off-chip mobility shift assay, CDK4/Cyclin D3; assay type: biochemical
T1 construct: purchased Carna Biosciences
Method: (§1) Cellular kinase activities were evaluated using nonradioisotopic methods such as the off‐chip mobility shift assay or IMAP (Carna Biosciences, Kobe, Japan).11 A kinase inhibition profiling panel was produced on the basis of the kinase inhibition rates. In off‐chip mobility shift assay, compound solution was prepared in assay buffer (20 mmol/L HEPES, 0.01% Triton X‐100, 2 mmol/L DTT, pH 7.5) and incubated in a 384‐well plate at room temperature. The reaction was stopped by adding Termination Buffer (QuickScout Screening Assist MSA; Carna Biosciences, Kobe, Japan). The substrate peptide and the phosphorylated peptide in the reaction solution were separated and quantified by LabChip system (Perkin Elmer, MA, USA). In IMAP assay, compound solution was prepared in assay buffer (20 mmol/L HEPES, 0.01% Tween‐20, 2 mmol/L DTT, pH 7.4) and incubated in a 384‐well black plate at room temperature. IMAP binding reagent (IMAP Screening Express kit; Molecular Devices, CA, USA) was added and incubated for 30 minutes. The kinase reaction was evaluated at the fluorescence polarization.

[3] = target: T2, PIM2 (Homo sapiens, UniProt Q9P1W9); assay: off-chip mobility shift assay, PIM2; assay type: biochemical
T2 construct: purchased Carna Biosciences
Method: as §1

[4] = target: T3, CDK7/Cyclin H/MAT1 (Homo sapiens, UniProt P50613); assay: off-chip mobility shift assay, CDK7/Cyclin H/MAT1; assay type: biochemical
T3 construct: purchased Carna Biosciences
Method: as §1

[5] = tested on: 313 protein kinases; assay: kinase panel assay (off-chip mobility shift or IMAP); assay type: biochemical; details: 313 kinases; 10 μmol/L printed for siphonodictyal B
Method: as §1

[6] = tested on: PIK3CA/PIK3R1; details: cited from earlier work
[7] = target: T4, CDK6/Cyclin D3 (Homo sapiens, UniProt Q00534); assay: off-chip mobility shift assay, CDK6/Cyclin D3; assay type: biochemical
T4 construct: purchased Carna Biosciences
Method: as §1

[8] = tested on: HCT 116 cells; assay: cell proliferation assay (Cell Counting Kit-8), HCT 116
Method: Cells were seeded in 96‐well plates at 4000 cells/well and incubated for 24 hours, then treated with each concentration of siphonodictyal B. In experiments with SB203580 or NAC, cells were further preincubated for 24 or 1 hour before application of siphonodictyal B, respectively. Cells were incubated with Cell Counting Kit‐8 (Dojindo Molecular Technologies, Kumamoto, Japan) for 1.5 hours. Then, the absorbance of each well was measured using SpectraMaxM2e (Molecular Devices, CA, USA). The ratios of surviving cells to control cells treated with 0.1% DMSO were calculated.

[9] = tested on: HCT 116 cells; assay: ROS detection by DCFDA staining; assay type: cell-based, human; details: 2 h
Method: HCT 116 cells were treated with each drug for 2 hours and stained using a DCFDA/H2DCFDA—Cellular Reactive Oxygen Species Detection Assay Kit (Abcam). The measurement was performed using FC‐500.

[10] = tested on: phospho-p38; assay: immunohistochemistry of xenograft tumor tissue; assay type: in vivo, Balb/c nude mice; details: 20 mg/kg intraperitoneally every 3 days, after all treatments
Method: (§2) All animal experiments were performed according to the Regulations for Animal Experiments and Related Activities at Tohoku University. Six‐week‐old female Balb/c nude mice were purchased from Charles River Laboratories (Wilmington, MA, USA). HCT 116 cells (5 × 10^6) were implanted subcutaneously into the right flanks of nude mice. After tumor formation was confirmed, mice were assigned to treatment with 20 mg/kg siphonodictyal B or vehicle (four mice per group) administered intraperitoneally every 3 days. Siphonodictyal B was dissolved in saline with 2.5% CremophorEL® and 2.5% ethanol. Tumor volumes were calculated on the basis of tumor mass using the formula length × width × width/2 (mm^3). The body weights of mice were also measured every 3 days.
Tumor tissues were collected from mice, fixed in 10% formalin, and embedded in paraffin. Tumor sections on slides were dewaxed, rehydrated, and incubated with a specific antibody against phospho‐p38.

[11] = tested on: HCT 116 xenograft; assay: xenograft mouse model, tumor growth; assay type: in vivo, Balb/c nude mice; details: 20 mg/kg intraperitoneally every 3 days
Method: as §2

[12] = read-out: PI3K (p110α/p85α) inhibitory activity IC50
[13] = ref Kikuchi T et al. 2016;2016(34):5659-66, read-out: IC50 PIK3CA/PIK3R1

T4 sequence (Q00534 whole entry): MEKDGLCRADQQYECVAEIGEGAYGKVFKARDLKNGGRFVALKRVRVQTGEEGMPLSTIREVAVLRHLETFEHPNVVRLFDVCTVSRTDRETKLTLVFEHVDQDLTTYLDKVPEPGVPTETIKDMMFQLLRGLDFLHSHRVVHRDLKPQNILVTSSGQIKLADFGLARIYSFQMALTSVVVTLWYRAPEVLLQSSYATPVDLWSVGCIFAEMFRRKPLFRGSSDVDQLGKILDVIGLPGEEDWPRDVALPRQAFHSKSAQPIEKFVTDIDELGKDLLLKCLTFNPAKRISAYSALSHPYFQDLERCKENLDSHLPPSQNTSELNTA
T4 sequence (P30281 whole entry partner): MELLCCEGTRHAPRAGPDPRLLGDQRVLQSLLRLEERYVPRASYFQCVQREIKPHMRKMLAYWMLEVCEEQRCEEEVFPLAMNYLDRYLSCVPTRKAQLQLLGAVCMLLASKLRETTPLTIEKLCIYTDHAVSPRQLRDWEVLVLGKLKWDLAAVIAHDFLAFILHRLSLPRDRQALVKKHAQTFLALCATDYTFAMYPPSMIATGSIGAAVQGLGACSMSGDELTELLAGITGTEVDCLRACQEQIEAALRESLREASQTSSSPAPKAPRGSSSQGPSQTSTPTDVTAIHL
T1 sequence (P11802 whole entry): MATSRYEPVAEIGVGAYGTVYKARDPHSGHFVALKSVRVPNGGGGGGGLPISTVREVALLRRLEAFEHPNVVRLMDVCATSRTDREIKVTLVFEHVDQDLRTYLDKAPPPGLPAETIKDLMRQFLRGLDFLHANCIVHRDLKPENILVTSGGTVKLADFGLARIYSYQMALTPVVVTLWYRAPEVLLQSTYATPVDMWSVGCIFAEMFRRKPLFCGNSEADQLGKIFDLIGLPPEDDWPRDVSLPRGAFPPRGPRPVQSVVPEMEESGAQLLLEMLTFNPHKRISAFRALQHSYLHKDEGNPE
T1 sequence (P30281 whole entry partner): as the sequence (P30281 whole entry partner) above
T3 sequence (P50613 whole entry): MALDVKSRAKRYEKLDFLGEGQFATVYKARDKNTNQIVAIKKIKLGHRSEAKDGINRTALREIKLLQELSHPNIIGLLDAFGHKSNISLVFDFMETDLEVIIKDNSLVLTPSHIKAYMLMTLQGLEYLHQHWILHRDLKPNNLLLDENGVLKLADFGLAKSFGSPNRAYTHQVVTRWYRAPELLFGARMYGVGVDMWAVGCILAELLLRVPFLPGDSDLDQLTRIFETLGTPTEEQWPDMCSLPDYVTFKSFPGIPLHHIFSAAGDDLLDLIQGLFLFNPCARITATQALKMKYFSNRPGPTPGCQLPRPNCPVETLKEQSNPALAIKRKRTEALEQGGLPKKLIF
T3 sequence (P51946 whole entry partner): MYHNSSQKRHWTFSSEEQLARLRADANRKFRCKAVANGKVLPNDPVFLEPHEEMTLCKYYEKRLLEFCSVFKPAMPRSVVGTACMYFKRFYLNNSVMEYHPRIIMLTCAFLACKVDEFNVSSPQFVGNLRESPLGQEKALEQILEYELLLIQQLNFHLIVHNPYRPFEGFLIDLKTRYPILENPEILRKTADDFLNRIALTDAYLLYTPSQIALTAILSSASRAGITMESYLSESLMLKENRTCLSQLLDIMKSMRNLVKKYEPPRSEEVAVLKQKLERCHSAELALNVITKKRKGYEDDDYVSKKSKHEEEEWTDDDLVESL
T3 sequence (P51948 whole entry partner): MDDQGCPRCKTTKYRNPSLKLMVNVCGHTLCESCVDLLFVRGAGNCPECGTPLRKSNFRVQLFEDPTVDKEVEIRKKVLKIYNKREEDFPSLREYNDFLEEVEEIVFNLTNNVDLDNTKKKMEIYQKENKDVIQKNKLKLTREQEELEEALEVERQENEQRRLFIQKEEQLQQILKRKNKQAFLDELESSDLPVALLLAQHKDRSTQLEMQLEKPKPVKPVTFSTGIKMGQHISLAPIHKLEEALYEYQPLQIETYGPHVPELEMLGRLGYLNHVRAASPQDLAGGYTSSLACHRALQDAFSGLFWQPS
T2 sequence (Q9P1W9 whole entry): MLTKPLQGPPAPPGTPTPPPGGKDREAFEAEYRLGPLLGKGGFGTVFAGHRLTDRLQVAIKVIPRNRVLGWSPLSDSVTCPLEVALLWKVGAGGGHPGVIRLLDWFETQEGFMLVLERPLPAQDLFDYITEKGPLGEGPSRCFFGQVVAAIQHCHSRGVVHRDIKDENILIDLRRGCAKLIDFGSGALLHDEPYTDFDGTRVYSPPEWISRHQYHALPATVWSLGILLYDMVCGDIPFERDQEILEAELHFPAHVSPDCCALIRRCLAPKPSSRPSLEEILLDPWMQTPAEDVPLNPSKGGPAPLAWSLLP

Compound: CS(=O)(=O)N1CCN(Cc2cc3nc(-c4cccc5[nH]ncc45)nc(N4CCOCC4)c3s2)CC1 [GDC0941, reference compound]
AKT phosphorylation ([1]; 2 μmol/L GDC0941, 48 h): inhibited

IC50 [2]: 19.9 µM | IC50 [3]: 5.31 µM | IC50 [4]: 1.27 µM | inhibition of CDK4, CDK6, CDK7 and PIM-2 in kinase panel [5]: strongly inhibited | IC50 [7]: 6.78 µM
Compound: CC1CCC2C(C)(C)CCCC2(C)c2c1oc1c(C=O)c(O)c(O)cc21 (stereo not shown) [Liphagal]
IC50 [6, 12]: 4.1 µM | IC50 [6, 13]: 4.12 µM

Compound: CC1CC[C@H]2C(C)(C)CCC[C@]2(C)C1=Cc1cc(O)c(O)c(C=O)c1O (stereo partly shown) [Siphonodictyal B]
cytotoxic effect (ratio of surviving cells) ([8]; HCT 116, 0.01-10 μmol/L, 24 h): more potent cytotoxic effects than liphagal | cytotoxic effect on addition of NAC ([8]; HCT 116, with NAC, 24 h): almost completely rescued | cytotoxic effect on addition of SB203580 ([8]; HCT 116, with SB203580, 48 h): partially canceled | IC50 [2]: 32.9 µM | ROS levels vs DMSO [9]: higher | increased ROS production on addition of NAC ([9]; with NAC): completely canceled | IC50 [3]: 6.99 µM | IC50 [4]: 13.7 µM | inhibition of CDK4, CDK6, CDK7 and PIM-2 in kinase panel [5]: strongly inhibited | IC50 [6, 12]: 2.6 µM | IC50 [6, 13]: 2.62 µM | phosphorylated p38 staining in tumor tissue vs control group [10]: strongly stained | PARP cleavage ([1]; 1.0 μmol/L, 48 h): induced | p38 phosphorylation ([1]; 1.0 μmol/L, 48 h): clearly induced | AKT phosphorylation at Ser473 ([1]; 0.1, 0.5 or 1 μmol/L, 48 h): did not inhibit | RB phosphorylation at Ser780 ([1]; 0.1, 0.5 or 1 μmol/L, 48 h): did not inhibit | levels of Bim ([1]; 0.5 or 1.0 μmol/L, 48 h): increased | phosphorylated p38 on addition of NAC ([1]; with NAC, 24 h): reduced | p38 phosphorylation on addition of SB203580 ([1]; with SB203580, 48 h): reduced | tumor volume vs control group [11]: significantly smaller | tumor weight vs control group [11]: significantly smaller | IC50 [7]: 69.1 µM

Compound: CC(=O)c1c(C)c2cnc(Nc3ccc(N4CCNCC4)cn3)nc2n(C2CCCC2)c1=O [palbociclib, Palbociclib, reference compound]
RB phosphorylation ([1]; 10 μmol/L palbociclib, 48 h): inhibited
